Reference: patent US4629782A, “Crystalline form of N-acetylmuramyl-L-α-aminobutyryl-D-isoglutamine” (Syntex (U.S.A.) Inc., priority 1984, dated 1986)

Tests used:
[1] = Thermogravimetric analysis (TGA) after vacuum drying and exposure to air; type: physicochemical; settings: dried under house vacuum 12 hours, exposed to air about 3 hours; 1.5% initial weight loss attributed to surface water
Method: The mole ratio of water to ABU-MDP in the crystalline monohydrate of formula (1) was determined by thermogravimetric analysis (TGA). A small amount of the monohydrate prepared in accordance with Example II was dried under "house" vacuum for 12 hours and then exposed to air for about 3 hours. […] This analysis was conducted with a Perkin Elmer TGS-2 thermogravimetric balance. The heating rate was 2.5° C. per minute from 40° C. to 160° C. A dry nitrogen purge was maintained throughout each run.

[2] = Hygroscopicity, visual comparison at 76% relative humidity and ambient temperature; type: physicochemical; settings: 76% relative humidity, ambient temperature, visual observation
Description: The crystalline monohydrate of this invention is less hygroscopic than amorphous ABU-MDP. This is readily observed by visually comparing samples of each in separate containers at 76% relative humidity and ambient temperature.

| Substance | Hygroscopicity indicated by TGA [1] | Hygroscopicity: physical state on exposure to humidity [2] |
| --- | --- | --- |
| acetylmuramyl-L-α-aminobutyryl-D-isoglutamine monohydrate [Crystalline monohydrate] | slightly hygroscopic | remains a solid |
| N-acetylmuramyl-L-α-aminobutyryl-D-isoglutamine [Amorphous ABU-MDP, reference compound] | – | turns into a syrupy solution within about an hour |
